Target: T1, EtoX (TRAP transporter, periplasmic ethanolamine binding protein, MED193_10041)
T1 construct: full-length codon optimized, C-terminal His-tag
Test: microscale thermophoresis with purified recombinant EtoX
Parameters: species or system Phaeobacter sp. MED193

With `NCCO` [ethanolamine] as the compound, how does the Kd read?
Its Kd is 7.88 ± 1.88 µM.

Source: PMC10132767, “Bacterial catabolism of membrane phospholipids links marine biogeochemical cycles” (Science Advances, 2023)
